BigSolDB 2.1

CCCc1nc2c(C)cc(-c3nc4ccccc4n3C)cc2n1Cc1ccc(-c2ccccc2C(=O)O)cc1
Conditions | solubility (mole fraction)
in acetone, 278.55 K | 4.42e-05
in acetone, 287.45 K | 5.71e-05
in acetone, 294.55 K | 7.76e-05
in acetone, 303.85 K | 9.45e-05
in acetone, 308.75 K | 0.000112
in acetone, 316.25 K | 0.000141
in acetone, 325.75 K | 0.000193
in benzene, 278.55 K | 6.95e-05
in benzene, 288.45 K | 0.000111
in benzene, 299.85 K | 0.000163
in benzene, 307.25 K | 0.000236
in benzene, 316.15 K | 0.000289
in benzene, 324.35 K | 0.000361
in benzene, 333.35 K | 0.000488
in chloroform, 278.75 K | 0.00533
in chloroform, 289.45 K | 0.00624
in chloroform, 296.95 K | 0.00701
in chloroform, 298.15 K | 0.00725
in chloroform, 303.95 K | 0.00747
in chloroform, 308.35 K | 0.00771
in chloroform, 313.15 K | 0.00799
in dichloromethane, 278.35 K | 0.0015
in dichloromethane, 286.55 K | 0.00177
in dichloromethane, 293.95 K | 0.00205
in dichloromethane, 298.05 K | 0.00216
in dichloromethane, 305.25 K | 0.00246
in dichloromethane, 308.35 K | 0.00261
in dichloromethane, 311.75 K | 0.00272
in ethanol, 277.85 K | 3.06e-05
in ethanol, 288.45 K | 4.57e-05
in ethanol, 298.45 K | 6.33e-05
in ethanol, 308.35 K | 9e-05
in ethanol, 313.45 K | 0.000117
in ethanol, 329.75 K | 0.000219
in ethanol, 333.65 K | 0.000255
in ethyl acetate, 283.65 K | 2.47e-05
in ethyl acetate, 293.35 K | 4.17e-05
in ethyl acetate, 303.65 K | 5.9e-05
in ethyl acetate, 305.35 K | 6.26e-05
in ethyl acetate, 317.95 K | 8.83e-05
in ethyl acetate, 329.45 K | 0.000123
in ethyl acetate, 333.65 K | 0.000148
in isopropanol, 288.45 K | 1.55e-05
in isopropanol, 298.05 K | 2.77e-05
in isopropanol, 309.55 K | 4.1e-05
in isopropanol, 316.55 K | 5.62e-05
in isopropanol, 321.55 K | 7.41e-05
in isopropanol, 329.55 K | 0.000106
in isopropanol, 338.35 K | 0.000157
in methanol, 278.45 K | 6.03e-05
in methanol, 288.55 K | 8.9e-05
in methanol, 299.85 K | 0.000132
in methanol, 307.35 K | 0.000153
in methanol, 313.25 K | 0.000186
in methanol, 324.85 K | 0.000271
in methanol, 330.05 K | 0.000315
in toluene, 278.65 K | 3.55e-05
in toluene, 288.45 K | 6.08e-05
in toluene, 300.05 K | 8.4e-05
in toluene, 306.35 K | 0.000125
in toluene, 316.75 K | 0.000169
in toluene, 325.85 K | 0.000225
in toluene, 334.55 K | 0.000307
